# Measurements reported in patent publication US20240156836A1, “METHODS OF TREATING TE[…]” (priority 2018, published 2024).
# Assays:
# [1] = Dose titration concordance analysis (C6 vs Cavg) in hypogonadal men treated with oral TU; format: in vivo
# From the text: One of the goals of this study was to determine whether the T concentration in blood samples collected into Plain tubes (yielding serum) can be used for making dose titration decisions. In previous studies, dose titration decisions were based on T concentrations in NaF-EDTA plasma.
# The goal of dose-titration in men treated with oral TU is to bring the testosterone Cavg into the eugonadal range. Because titration decisions based on testosterone Cavg are not practical in real world clinical setting, single sample T concentrations can be used as surrogates of Cavg. Concordance analysis estimates how well dose titration based on two different measures (e.g., Cavg v. C6) work in guiding dose titration. […] However, to determine total concordance, effective off-diagonal titration also must be determined. Effective off-diagonal titration can be estimated for the following reasons. […] Second, the titration boundaries (425 to 970 ng/dL) fall within the eugonadal boundaries (300 to 1100 ng/dL), and the eugonadal range is wide (3.5 fold) compared to the largest dose increment (33%) or decrement (25%). This means that the dose increments/decrements employed can allow movement within the eugonadal range (e.g. increasing the dose of someone with a Cavg of 400 ng/dL will raise the Cavg to a maximum of 532 ng/dL [400×1.33]). Similarly, when titration decisions based on C6 are different from those based on Cavg, the outcome will often be a Cavg in the eugonadal range. For example, when a patient's C6 is less than 425 ng/dL (indicating a dose increase is required), but whose Cavg is 600 ng/dL (indicating no titration), the impact of titrating based on C6 is that the Cavg will increase but remain in the eugonadal range. The largest dose increase will result in a 33% increase in exposure which, in this case, will raise the Cavg to 798 ng/dL. Therefore, despite titration based on C6, this patient's Cavg is not likely to rise above the upper boundary of the eugonadal range. Thus, the titration decision based on C6 is effectively concordant with that based on Cavg, since both titration decisions will result in a patient with a Cavg in the eugonadal range. Selected cells in Table 3 indicate a patient's Cavg that would result in effective off-diagonal titration. Therefore, when comparing the effectiveness of dose-titration decisions based on C6 and Cavg, both concordance (on-diagonal agreement between C6 and Cavg) and effective off-diagonal agreement must be considered) [i.e., total concordance (percent of patients treated with oral TU who fall into given concordance boxes) is defined as the sum of on-diagonal and effective off-diagonal concordance (see area in Table 3 defined by heavy line). In the example presented, the C6 value is a serum value derived from a measured NaF-EDTA plasma value and a conversion factor that enables the conversion of NaF-EDTA plasma data to be converted to an equivalent serum data.
# These reflect an on-diagonal concordance of 75% and 63% and an effective off-diagonal titration decision of 24% and 36% for Visit 2 and Visit 4b, respectively. Therefore, dose titration based on C6 can effectively adjust a patient's oral TU dose such that their Cavg is in the eugonadal range.
# [2] = Protocol: Testosterone undecanoate is metabolized into testosterone. Its degradation in whole blood into testosterone has been studied in conditions typically used in clinical trials.
# Prior to discharge from the clinical facility, the subjects will be instructed to take 396 mg TU by mouth immediately prior to their dinner meal on Day 1, then twice daily on Days 2-6 immediately prior to their breakfast and dinner meals, and on Day 7 in the morning, immediately prior to their breakfast meal.
# Subjects will return to the Clinic on Day 7 in the late afternoon (before dinner) with their study medication. Upon arrival at the clinic, their study drug will be counted to determine compliance during Day 1 through Day 7 post-AM dose. They will then be administered the study drug 396 mg TU by mouth immediately prior to a dinner meal (containing 30 g fat) which will be provided. Subjects will be instructed to consume the dinner in approximately 20 minutes. Subjects will remain in the unit overnight.
# On the 8th day, 5 hrs after their AM meal, blood is collected in plain, EDTA and NaF-EDTA tubes. The plain tubes sit at room temperature (RT). The EDTA and NaF-EDTA tubes are placed on ice.
# Samples will be collected into multiple Plain, EDTA and NaF-EDTA tubes. The Plain tube will be incubated at RT to allow blood clotting, as recommended by Clinical and Laboratory Standards Institute (CLSI 2010). […]
compound,measurement,setting,value
"CCCCCCCCCCC(=O)O[C@H]1CC[C@H]2[C@@H]3CCC4=CC(=O)CC[C@]4(C)[C@H]3CC[C@]12C [TU, testosterone undecanoate]",percent of patients,"[1]; Visit 2, C6 425-970 ng/dL, Cavg 350-800 ng/dL",15.2%
same,percent of patients,"[1]; Visit 2, C6 425-970 ng/dL, Cavg <350 ng/dL",5.4%
same,percent of patients,"[1]; Visit 2, C6 425-970 ng/dL, Cavg >800 ng/dL",2%
same,percent of patients,"[1]; Visit 2, C6 425-970 ng/dL, Total",22.6%
same,percent of patients,"[1]; Visit 2, C6 <425 ng/dL, Cavg 350-800 ng/dL",13.9%
same,percent of patients,"[1]; Visit 2, C6 <425 ng/dL, Cavg <350 ng/dL",59.4%
same,percent of patients,"[1]; Visit 2, C6 <425 ng/dL, Cavg >800 ng/dL",0%
same,percent of patients,"[1]; Visit 2, C6 <425 ng/dL, Total",73.3%
same,percent of patients,"[1]; Visit 2, C6 >970 ng/dL, Cavg 350-800 ng/dL",4.2%
same,percent of patients,"[1]; Visit 2, C6 >970 ng/dL, Cavg <350 ng/dL",0%
same,percent of patients,"[1]; Visit 2, C6 >970 ng/dL, Cavg >800 ng/dL",0.6%
same,percent of patients,"[1]; Visit 2, C6 >970 ng/dL, Total",4.8%
same,percent of patients,"[1]; Visit 2, Total, Cavg 350-800 ng/dL",33.3%
same,percent of patients,"[1]; Visit 2, Total, Cavg <350 ng/dL",64.8%
same,percent of patients,"[1]; Visit 2, Total, Cavg >800 ng/dL",2.6%
same,percent of patients,"[1]; Visit 4b, C6 425-970 ng/dL, Cavg 350-800 ng/dL",25%
same,percent of patients,"[1]; Visit 4b, C6 425-970 ng/dL, Cavg <350 ng/dL",10%
same,percent of patients,"[1]; Visit 4b, C6 425-970 ng/dL, Cavg >800 ng/dL",0.6%
same,percent of patients,"[1]; Visit 4b, C6 425-970 ng/dL, Total",35.6%
same,percent of patients,"[1]; Visit 4b, C6 <425 ng/dL, Cavg 350-800 ng/dL",21.8%
same,percent of patients,"[1]; Visit 4b, C6 <425 ng/dL, Cavg <350 ng/dL",37.5%
same,percent of patients,"[1]; Visit 4b, C6 <425 ng/dL, Cavg >800 ng/dL",0%
same,percent of patients,"[1]; Visit 4b, C6 <425 ng/dL, Total",59.3%
same,percent of patients,"[1]; Visit 4b, C6 >970 ng/dL, Cavg 350-800 ng/dL",4.3%
same,percent of patients,"[1]; Visit 4b, C6 >970 ng/dL, Cavg <350 ng/dL",0%
same,percent of patients,"[1]; Visit 4b, C6 >970 ng/dL, Cavg >800 ng/dL",0.6%
same,percent of patients,"[1]; Visit 4b, C6 >970 ng/dL, Total",4.9%
same,percent of patients,"[1]; Visit 4b, Total, Cavg 350-800 ng/dL",51.1%
same,percent of patients,"[1]; Visit 4b, Total, Cavg <350 ng/dL",47.5%
same,percent of patients,"[1]; Visit 4b, Total, Cavg >800 ng/dL",1.2%
same,testosterone exposure versus dose,[1]; men treated with oral TU,dose proportional
same,degradation of TU in whole blood into testosterone,[2],degrades extensively to testosterone
